The source of these data is patent publication US12344623B2, “Thiazolopyridine derivatives as adenosine receptor antagonists” (Merck Patent GmbH, priority 2019, dated 2025).

Read-outs that look alike come from different tables or passages of the source.

As usually defined, the IC50 is the point on the concentration scale where inhibition reaches its midpoint.

Assay type in all cases: cell-based
The target of test [1] is T1, human A1 receptor (Homo sapiens, UniProt P30542).
T1 construct: expressed in transfected cells; host or cells: CHO
T1 sequence (P30542 1-326): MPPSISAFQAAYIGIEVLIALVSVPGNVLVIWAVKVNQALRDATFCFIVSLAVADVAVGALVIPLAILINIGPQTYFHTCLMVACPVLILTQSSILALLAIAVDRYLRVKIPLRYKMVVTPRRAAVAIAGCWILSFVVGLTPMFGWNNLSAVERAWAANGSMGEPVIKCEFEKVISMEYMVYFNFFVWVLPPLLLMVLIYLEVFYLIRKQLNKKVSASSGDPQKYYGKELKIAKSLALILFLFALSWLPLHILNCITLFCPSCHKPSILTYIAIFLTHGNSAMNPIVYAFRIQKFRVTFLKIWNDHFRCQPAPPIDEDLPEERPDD
Nature of the test: Functional A1 receptor activity, recombinant CHO cells, cAMP (HTRF), forskolin, agonist CPA. Conditions: recombinant CHO cells, forskolin, agonist CPA, read-out: Functional A1 receptor activity, CHO, cAMP, IC50. As to the method:
(§1) The functional activities of human A2A, A2B, A1 and A3 receptors were determined by quantification of cAMP, being the second messenger for adenosine receptors.
(§2) For human A1 and A3 receptors, recombinant CHO cells, expressing either A1 or A3-receptor, were used. As both receptors couple to Gi proteins, the assay protocol was adapted:
(§3) Cells were seeded into 384-well plates, forskolin, test compounds and agonists (CPA for A1- and IB-MECA for A3-receptor) were added. After 30 min incubation, HTRF reagents (cAMP dynamic 2, Cis Bio) were added and the cellular cAMP levels were determined using the ENVISION (Perkin Elmer) plate reader. Obtained raw data were normalized against the inhibitor control and the neural control (DMSO) and the normalized data were fitted using GeneData software.
For orientation: TR-FRET usually uses a lanthanide donor and a delayed reading to cut background.

Test [2] deals with human A2A receptor (Homo sapiens, UniProt P29274). Kind of test: Functional A2A receptor activity, recombinant HEK293 cells, cAMP (HTRF), agonist NECA. Further details: expressed in transfected cells; host or cells: HEK293. Particulars: read-out: Functional A2A receptor activity, HEK293, cAMP, IC50. As to the method: as §1, §3
For test [3], the target named is T2, human A3 receptor (Homo sapiens, UniProt P0DMS8).
T2 construct: expressed in transfected cells; host or cells: CHO
T2 sequence (P0DMS8 1-318): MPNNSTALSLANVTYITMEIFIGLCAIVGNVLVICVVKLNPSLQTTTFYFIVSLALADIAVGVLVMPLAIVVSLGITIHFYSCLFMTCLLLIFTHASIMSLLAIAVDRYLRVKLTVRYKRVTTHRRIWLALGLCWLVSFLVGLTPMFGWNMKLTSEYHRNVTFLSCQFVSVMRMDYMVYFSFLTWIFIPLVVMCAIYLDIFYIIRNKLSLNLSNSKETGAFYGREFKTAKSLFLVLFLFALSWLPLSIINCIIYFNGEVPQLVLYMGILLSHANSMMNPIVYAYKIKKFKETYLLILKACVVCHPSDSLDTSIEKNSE
Kind of test: Functional A3 receptor activity, recombinant CHO cells, cAMP (HTRF), forskolin, agonist IB-MECA. Conditions: recombinant CHO cells, forskolin, agonist IB-MECA, read-out: Functional A3 receptor activity, CHO, cAMP, IC50. As to the method:
as §1, §2, §3

Test [4] deals with T3, human A2B receptor (Homo sapiens, UniProt P29275).
T3 construct: expressed in transfected cells; host or cells: HEK293
T3 sequence (P29275 1-332): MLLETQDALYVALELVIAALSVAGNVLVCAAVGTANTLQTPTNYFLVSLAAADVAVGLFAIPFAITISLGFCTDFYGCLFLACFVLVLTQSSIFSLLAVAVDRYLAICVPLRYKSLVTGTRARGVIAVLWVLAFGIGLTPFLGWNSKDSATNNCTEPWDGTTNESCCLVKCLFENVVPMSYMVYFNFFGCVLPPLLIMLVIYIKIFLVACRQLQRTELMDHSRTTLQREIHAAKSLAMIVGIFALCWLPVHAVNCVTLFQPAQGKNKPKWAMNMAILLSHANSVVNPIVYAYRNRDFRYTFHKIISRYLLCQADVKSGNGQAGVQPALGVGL
Kind of test: Functional A2B receptor activity, recombinant HEK293 cells, cAMP (HTRF), agonist NECA. Conditions: read-out: Functional A2B receptor activity, HEK293, cAMP, IC50. Here is the method: as §1, §3

Sequence of human A2A receptor (P29274 whole entry): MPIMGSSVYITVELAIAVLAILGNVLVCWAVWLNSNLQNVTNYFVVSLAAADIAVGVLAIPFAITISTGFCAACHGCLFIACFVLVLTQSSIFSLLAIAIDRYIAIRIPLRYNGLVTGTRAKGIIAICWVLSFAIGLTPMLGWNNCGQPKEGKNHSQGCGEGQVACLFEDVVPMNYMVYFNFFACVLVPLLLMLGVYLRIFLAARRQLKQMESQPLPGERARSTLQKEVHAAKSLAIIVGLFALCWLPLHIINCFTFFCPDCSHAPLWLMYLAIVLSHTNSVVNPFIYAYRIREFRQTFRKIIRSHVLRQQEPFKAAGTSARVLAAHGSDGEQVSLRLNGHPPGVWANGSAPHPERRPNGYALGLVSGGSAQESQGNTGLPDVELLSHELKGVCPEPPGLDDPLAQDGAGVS

`COc1ncc(C2=CCOCC2)c2sc(NC(=O)Nc3ccc(NC(C)=O)c(C)c3)nc12` [Compound 92, N-[4-({[7-(3,6-dihydro-2H-pyran-4-yl)-4-methoxy-[1,3]thiazolo[4,5-c]pyridin-2-yl]carbamoyl}amino)-2-methylphenyl]acetamide]: the IC50 in test [1] was < 0.1 µM; in test [2], < 0.01 µM; in test [3] it was < 1 µM; in test [4] it was < 0.01 µM.

Regarding `COc1ncc(C2=CCOCC2)c2sc(NC(=O)N3CC[C@]4(CCCNC4)C3)nc12` [Compound 122, (S)-2,7-Diaza-spiro[4.5]decane-2-carboxylic acid [7-(3,6-dihydro-2H-pyran-4-yl)-4-methoxy-thiazolo[4,5-c]pyridin-2-yl]-amide], the 50% inhibitory concentration (IC50) was > 1 µM in test [1], < 0.01 µM in test [2], > 1 µM in test [3] and < 0.1 µM in test [4].

As to `COc1cnc(N2CCOCC2)c2sc(NC(=O)N3CCC(CO)CC3)nc12` [drawing 188, reference compound], the IC50 is > 1 µM in test [1] (cAMP), < 0.01 µM in test [2], > 1 µM in test [3] (cAMP) and < 1 µM in test [4].

As for `COc1cnc(N2CCOCC2)c2sc(NC(=O)N3CCC4(CCCO4)CC3)nc12` [drawing 189, reference compound], the 50% inhibitory concentration (IC50) in test [1] (cAMP) is > 1 µM; in test [2], < 0.01 µM; in test [3] (cAMP), > 1 µM; in test [4], < 1 µM.

On to `COc1ncc(-c2ccc(=O)[nH]c2)c2sc(NC(=O)N3CCC4(CCOCC4)C3)nc12` [Compound 78, 8-Oxa-2-aza-spiro[4.5]decane-2-carboxylic acid [4-methoxy-7-(6-oxo-1,6-dihydro-pyridin-3-yl)-thiazolo[4,5-c]pyridin-2-yl]-amide], for which the IC50 in test [1] is > 1 µM; in test [2] it was < 0.01 µM; in test [3], > 1 µM; in test [4] it was < 1 µM.

Regarding `COc1ccc(-c2cnn(C)c2)c2sc(NC(=O)c3ccnc(N4CCOCC4)c3)nc12` [reference compound], the IC50 in test [1] (cAMP) was < 1 µM; in test [2] it was < 0.01 µM; in test [3] (cAMP), < 1 µM; in test [4] it was < 1 µM.

Consider `COc1ncc(C2=CCOC2)c2sc(NC(=O)c3c[nH]cn3)nc12` [Compound 43, N-[7-(2,5-dihydrofuran-3-yl)-4-methoxy-[1,3]thiazolo[4,5-c]pyridin-2-yl]-1H-imidazole-4-carboxamide], for which the 50% inhibitory concentration (IC50) in test [1] is < 1 µM; in test [2] it was < 0.01 µM; in test [3] it was > 1 µM; in test [4], < 0.1 µM.

Turning to `COc1ncc(-c2ccccc2)c2sc(NC(=O)N3CCC(C(=O)N(C)C)CC3)nc12` [Compound 123, Piperidine-1,4-dicarboxylic acid 4-dimethylamide 1-[(4-methoxy-7-phenyl-thiazolo[4,5-c]pyridin-2-yl)-amide]], the 50% inhibitory concentration (IC50) in test [1] was > 1 µM; in test [2] it was < 0.01 µM; in test [3], > 1 µM; in test [4], < 0.1 µM.

In the case of `COc1ccc(-c2cnn(C)c2)c2sc(NC(=O)N3CCC(C)(O)CC3)nc12` [reference compound], the concentration for half-maximal inhibition (IC50) in test [1] (cAMP) was < 1 µM; in test [2], < 0.01 µM; in test [3] (cAMP), < 1 µM; in test [4] it was < 1 µM.

With `COc1ncc(-c2ccc(F)c(O)c2)c2sc(NC(=O)N3CCC4(CCOCC4)C3)nc12` [Compound 149, 8-Oxa-2-aza-spiro[4.5]decane-2-carboxylic acid [7-(4-fluoro-3-hydroxy-phenyl)-4-methoxy-thiazolo[4,5-c]pyridin-2-yl]-amide], the IC50 in test [1] is < 1 µM; in test [2], < 0.01 µM; in test [3], > 1 µM; in test [4] it was < 0.01 µM.

With `COc1ncc(C2=CCOCC2)c2sc(NC(=O)c3ccc(Cn4ccnc4)cc3)nc12` [Compound 82, N-[7-(3,6-dihydro-2H-pyran-4-yl)-4-methoxy-[1,3]thiazolo[4,5-c]pyridin-2-yl]-4-[(1H-imidazol-1-yl)methyl]benzamide], the IC50 in test [1] was < 0.1 µM; in test [2] it was < 0.01 µM; in test [3], > 1 µM; in test [4] it was < 0.01 µM.

On to `COc1ncc(C2=CCC(OC)CC2)c2sc(NC(=O)N3CC[C@@]4(CCCOC4)C3)nc12` (stereo partly drawn) [Compound 77, (5S)-N-[4-methoxy-7-(4-methoxycyclohex-1-en-1-yl)-[1,3]thiazolo[4,5-c]pyridin-2-yl]-7-oxa-2-azaspiro[4.5]decane-2-carboxamide], for which the IC50 in test [1] is > 1 µM; in test [2], < 0.01 µM; in test [3] it was > 1 µM; in test [4] it was < 1 µM.

In the case of `COc1ncc(C2=CCOCC2)c2sc(NC(=O)c3cnn(-c4ccncc4)c3)nc12` [Compound 157, 1-Pyridin-4-yl-1H-pyrazole-4-carboxylic acid [7-(3,6-dihydro-2H-pyran-4-yl)-4-methoxy-thiazolo[4,5-c]pyridin-2-yl]-amide], the concentration for half-maximal inhibition (IC50) was < 1 µM in test [1], < 0.01 µM in test [2], > 1 µM in test [3] and < 0.01 µM in test [4].

As for `COc1ncc(-c2ccccc2)c2sc(NC(=O)c3c[nH]cn3)nc12` [Compound 60, 1H-Imidazole-4-carboxylic acid (4-methoxy-7-phenyl-thiazolo[4,5-c]pyridin-2-yl)-amide], the concentration for half-maximal inhibition (IC50) in test [1] was < 1 µM; in test [2], < 0.01 µM; in test [3], < 1 µM; in test [4], < 0.01 µM.

Turning to `COc1nc(F)c(N2CCOCC2)c2sc(NC(=O)C3CC3)nc12` [Compound 4, Cyclopropanecarboxylic acid (6-fluoro-4-methoxy-7-morpholin-4-yl-thiazolo[4,5-c]pyridin-2-yl)-amide], the IC50 in test [1] is > 1 µM; in test [2], < 0.01 µM; in test [3], < 1 µM; in test [4], < 0.01 µM.

`COc1ncc(C2=CCOCC2)c2sc(NC(=O)N3CC[C@@]4(CCCNC4)C3)nc12` [Compound 121, (R)-2,7-Diaza-spiro[4.5]decane-2-carboxylic acid [7-(3,6-dihydro-2H-pyran-4-yl)-4-methoxy-thiazolo[4,5-c]pyridin-2-yl]-amide]: the IC50 was > 1 µM in test [1], < 0.01 µM in test [2], > 1 µM in test [3] and < 0.1 µM in test [4].

Regarding `COc1ncc(C2=CCOCC2)c2sc(NC(=O)c3ccc([C@@H](C)NC(C)=O)cc3)nc12` [Compound 83, N-[7-(3,6-dihydro-2H-pyran-4-yl)-4-methoxy-[1,3]thiazolo[4,5-c]pyridin-2-yl]-4-[(1R)-1-acetamidoethyl]benzamide], the 50% inhibitory concentration (IC50) in test [1] is < 1 µM; in test [2], < 0.01 µM; in test [3], > 1 µM; in test [4] it was < 0.01 µM.

Turning to `COc1ncc(-c2cccc(NCc3cocn3)c2)c2sc(NC(=O)N3CCC4(CCOCC4)C3)nc12` [Compound 166, 8-Oxa-2-aza-spiro[4.5]decane-2-carboxylic acid (4-methoxy-7-{3-[(oxazol-4-ylmethyl)-amino]-phenyl}-thiazolo[4,5-c]pyridin-2-yl)-amide], the IC50 in test [1] is > 1 µM; in test [2], < 0.01 µM; in test [3], > 1 µM; in test [4], < 0.1 µM.
